In patent US20090317373A1, “Inhibition of the Anti-FVIII Immune Response” (Institut National De La Sante Et De La Recherche Medicale, priority 2005, published 2009):

What was measured:
[1] = system: human DCs derived from monocytes; test: In vitro internalization of fluorescent ligands by human DCs derived from monocytes (flow cytometry); format: cell-based
Description: DCs were prepared from monocytes as described previously (29) with a change in the culture media. Briefly, mononucleated cells were isolated from heparinized leukoplatelet layers (“buffy coats”) from healthy adult donors by adhesion on plastic cell culture dishes in RPMI 1640 medium supplemented with 10% human AB serum, glutamine and antibiotics for 60 minutes. Non-adhering cells were removed by 3 gentle washings with the medium. The adhering monocytes were cultured in X-VIVO 15 medium (Cambrex Bio Sciences, Paris, France) supplemented with 1% human AB serum and antibiotics and in the presence of 500 IU/ml of recombinant human interleukin-4 (rhIL-4), R&D Systems (Lille, France) and 1,000 IU/ml of recombinant human granulocyte macrophage colony-stimulating factor (rhGM-CSF), Immunotools (Friesoythe, Germany). Half of the medium, comprising all the supplements, was replaced every two days. After culture for 5 days, the non-adhering cells and those with little adhesion, corresponding to the fraction enriched in DC, were harvested, washed and used for subsequent experiments.
Whole recombinant human FVIII (1,000 IU, Kogenate, Bayer) or B domain-deleted recombinant human FVIII (FVIII-BDD) (1,000 IU, Refacto, Wyeth) were solubilized in water and dialyzed against bicarbonate buffer (pH 9.2) containing CaCl2, 5 mM at 4° C., followed by coupling to fluorescein 5-isothiocyanate (isomer I, Sigma-Aldrich, Saint Quentin Fallavier, France) for 7-8 hours at 4° C. The labelled FVIII was then dialyzed against RPMI 1640 medium to remove non-coupled FITC. The FVIII-FITC was quantified by the Bradford method using bovine serum albumin as the standard.
The DCs obtained in Example 1 (0.4×10^5 cells/well of a 96-well plate with 100 μl/well) were incubated with various doses (0.029, 0.057, 0.143 and 0.358 μM) of fluorescent conjugated ligands (FVIII-FITC, BDD-FVIII-FITC) obtained in Example 2 in X-VIVO medium for 0, 15, 60 and 120 min at 4° C. or at 37° C. After the incubation period, the cells were washed with cold PBS and analyzed by flow cytometry. To investigate the involvement of receptors in the internalization, the cells were preincubated for 30 min at 37° C. with […] and 1 mg/ml of mannan (Sigma-Aldrich, Saint Quentin Fallavier, France) before the addition of ligands conjugated to fluorescein. In addition to FVIII-FITC and FVIII-BDD-FITC, human α2-macroglobulin-MA (α2M) conjugated to FITC from Biomac (Leipzig, Germany), dextran-FITC (molecular weight 40,000) from Molecular Probes (Leiden, The Netherlands) and Lucifer yellow (LY-CH) from Sigma-Aldrich were used. The investigation of the internalization of FVIII was also carried out in the presence of 20 μg/ml of anti-mannose receptor monoclonal antibody (PAM-1, isotype IgG1) or anti-DC-SIGN monoclonal antibody ((AZN-D1, isotype IgG1) or mouse IgGλ,k conjugated to PE-Cy (BD Pharmingen, France). To investigate whether DC-SIGN is involved in the endocytosis of FVIII, the B lymphocyte line HD-420 transformed by wild-type EBV and transfected with DC-SIGN or not transfected was incubated with various concentrations of FVIII-FITC (0, 0.036, 0.072 and 0.143 μM) for 2 hours in RPMI 1640 medium supplemented with 10% FCS (foetal calf serum) and antibiotics. The analysis was carried out as for the DCs.

binding of FVIII to VWF = binding of FVIII to VWF (Homo sapiens, UniProt P00451); test: ELISA for binding of FVIII to VWF; conditions: FVIII preincubated with mannan (0.01 to 4 mg/ml); FIG. 5b
Sequence of binding of FVIII to VWF (P00451 20-1667 limits assumed): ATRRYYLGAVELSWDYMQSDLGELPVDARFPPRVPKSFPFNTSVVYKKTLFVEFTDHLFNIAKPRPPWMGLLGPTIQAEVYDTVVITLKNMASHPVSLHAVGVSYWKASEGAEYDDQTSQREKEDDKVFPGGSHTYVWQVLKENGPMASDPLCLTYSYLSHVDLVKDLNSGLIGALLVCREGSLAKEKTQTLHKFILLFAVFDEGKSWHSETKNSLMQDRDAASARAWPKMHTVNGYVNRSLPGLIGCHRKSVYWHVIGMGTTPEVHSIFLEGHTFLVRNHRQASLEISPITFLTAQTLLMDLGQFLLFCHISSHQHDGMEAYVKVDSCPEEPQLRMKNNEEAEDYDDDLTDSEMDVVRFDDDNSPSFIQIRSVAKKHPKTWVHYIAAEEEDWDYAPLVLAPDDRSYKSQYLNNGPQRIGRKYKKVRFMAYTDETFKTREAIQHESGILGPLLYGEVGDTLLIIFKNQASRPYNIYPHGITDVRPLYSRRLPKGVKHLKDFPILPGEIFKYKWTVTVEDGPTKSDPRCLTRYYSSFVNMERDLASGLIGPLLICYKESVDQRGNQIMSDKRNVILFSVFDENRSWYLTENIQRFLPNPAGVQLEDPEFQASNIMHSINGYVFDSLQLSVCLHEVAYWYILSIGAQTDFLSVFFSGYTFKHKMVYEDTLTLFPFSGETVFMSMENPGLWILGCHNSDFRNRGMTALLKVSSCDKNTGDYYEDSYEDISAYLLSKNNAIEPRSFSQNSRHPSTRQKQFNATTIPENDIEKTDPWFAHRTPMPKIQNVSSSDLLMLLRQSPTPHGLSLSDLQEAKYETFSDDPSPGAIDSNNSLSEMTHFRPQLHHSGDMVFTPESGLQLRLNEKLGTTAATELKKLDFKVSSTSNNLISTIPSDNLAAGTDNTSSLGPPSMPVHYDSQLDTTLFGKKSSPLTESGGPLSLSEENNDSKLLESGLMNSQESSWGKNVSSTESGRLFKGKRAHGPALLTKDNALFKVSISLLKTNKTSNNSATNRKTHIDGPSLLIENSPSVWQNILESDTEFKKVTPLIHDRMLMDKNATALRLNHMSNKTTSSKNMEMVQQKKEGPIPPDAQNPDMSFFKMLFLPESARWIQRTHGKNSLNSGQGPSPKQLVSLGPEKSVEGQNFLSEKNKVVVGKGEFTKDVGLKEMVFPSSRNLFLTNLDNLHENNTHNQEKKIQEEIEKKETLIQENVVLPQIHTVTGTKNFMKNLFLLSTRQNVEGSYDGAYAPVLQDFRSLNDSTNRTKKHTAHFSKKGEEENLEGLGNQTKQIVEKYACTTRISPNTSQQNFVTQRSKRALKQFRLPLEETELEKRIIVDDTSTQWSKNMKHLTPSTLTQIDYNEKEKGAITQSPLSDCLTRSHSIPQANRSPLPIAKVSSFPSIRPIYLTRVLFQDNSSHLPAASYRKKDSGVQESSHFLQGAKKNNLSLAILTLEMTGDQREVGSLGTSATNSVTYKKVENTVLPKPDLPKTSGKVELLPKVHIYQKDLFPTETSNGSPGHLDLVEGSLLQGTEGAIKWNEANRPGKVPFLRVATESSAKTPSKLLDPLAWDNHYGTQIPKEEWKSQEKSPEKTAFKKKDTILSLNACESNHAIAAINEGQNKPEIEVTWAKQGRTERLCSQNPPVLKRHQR
Sequence of binding of FVIII to VWF (P00451 1668-2351 limits assumed): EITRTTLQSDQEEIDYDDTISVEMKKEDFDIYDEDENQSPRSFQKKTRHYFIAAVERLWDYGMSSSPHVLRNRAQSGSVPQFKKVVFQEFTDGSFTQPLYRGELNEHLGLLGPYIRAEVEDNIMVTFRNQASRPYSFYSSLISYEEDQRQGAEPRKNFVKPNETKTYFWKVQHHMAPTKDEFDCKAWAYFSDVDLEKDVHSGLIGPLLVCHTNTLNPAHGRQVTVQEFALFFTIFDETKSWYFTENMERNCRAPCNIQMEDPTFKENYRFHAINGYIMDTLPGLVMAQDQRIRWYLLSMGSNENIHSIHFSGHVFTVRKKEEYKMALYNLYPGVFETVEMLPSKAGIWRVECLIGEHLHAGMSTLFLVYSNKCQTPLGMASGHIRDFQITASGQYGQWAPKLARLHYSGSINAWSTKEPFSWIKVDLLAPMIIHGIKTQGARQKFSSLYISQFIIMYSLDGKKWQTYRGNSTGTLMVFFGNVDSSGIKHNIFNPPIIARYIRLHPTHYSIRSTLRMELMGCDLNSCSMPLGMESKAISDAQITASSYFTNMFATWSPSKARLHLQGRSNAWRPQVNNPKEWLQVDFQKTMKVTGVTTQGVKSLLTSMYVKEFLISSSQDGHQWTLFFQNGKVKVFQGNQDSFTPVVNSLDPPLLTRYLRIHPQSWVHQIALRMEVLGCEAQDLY
Description: ELISA plates (Nunc, Roskilde, Denmark) were coated with VWF (VWF, Willefectin, LFB, Les Ulis, France) at 2 μg/ml per well in PBS (pH 7.4) at 37° C. for 1 hour. The plates were saturated with PBS containing 1% skimmed milk and 0.1% Tween 20 for 1 hour at 37° C. FVIII (0.3 μg/ml) was preincubated by itself or with mannan (0.01 to 4 mg/ml) or with BO2C11 (human monoclonal anti-FVIII IgG) (0.05 to 40 μg/ml) in a blocking buffer for 1 hour at 37° C. and then added to the wells coated with VWF and incubated for 1 hour at 37° C. A mouse monoclonal anti-FVIII IgG (mAb6) (3 μg/ml) was incubated at 37° C. for 1 hour. […] No binding of FVIII was observed on the wells which had not been coated.

[2] = in the presence of mannan, FIG. 2d

## mannan
[1]; FVIII, FVIII-BDD and dextran, FIG. 2e
  neutralizing effect on the internalization of the antigen (dose dependence): proportional to the dose
[1]; excess of RAP or mannan, FIG. 2f
  inhibition of internalization of α2M: no effect
[1]; [2]
  blocking of internalization of dextran: 80%
  effect on internalization of Lucifer yellow (ly): not affected
[1]; mannan 1 mg/ml, p<0.05
  inhibition of endocytosis of FVIII-BDD: 41.3±17.2%
  inhibition of endocytosis of whole FVIII: 35.0±10.0%
[1]; similar for FVIII, FVIII-BDD and dextran, FIG. 2e
  saturation concentration for inhibition of internalization: 100 µg/mL
[1]; summary statement in Example 5
  reduction of endocytosis of FVIII by the human DCs: up to 40%
Binding of FVIII to VWF
  effect on interaction of FVIII with VWF: does not interfere
